Results on four compounds are retold here after US20110135574A1, “METHODS OF TREATING KIDNEY DISEASE” (priority 2009, published 2011).

The target in assay [1] is T1, TRPC5 and TRPC6 channels in AT1R podocytes (Rattus norvegicus, UniProt Q8VD38).
T1 construct: endogenous in cells; host or cells: immortalized rat podocytes stably expressing the AngII Type 1 Receptor (AT1R podocytes)
T1 sequence (Q8VD38 1-974): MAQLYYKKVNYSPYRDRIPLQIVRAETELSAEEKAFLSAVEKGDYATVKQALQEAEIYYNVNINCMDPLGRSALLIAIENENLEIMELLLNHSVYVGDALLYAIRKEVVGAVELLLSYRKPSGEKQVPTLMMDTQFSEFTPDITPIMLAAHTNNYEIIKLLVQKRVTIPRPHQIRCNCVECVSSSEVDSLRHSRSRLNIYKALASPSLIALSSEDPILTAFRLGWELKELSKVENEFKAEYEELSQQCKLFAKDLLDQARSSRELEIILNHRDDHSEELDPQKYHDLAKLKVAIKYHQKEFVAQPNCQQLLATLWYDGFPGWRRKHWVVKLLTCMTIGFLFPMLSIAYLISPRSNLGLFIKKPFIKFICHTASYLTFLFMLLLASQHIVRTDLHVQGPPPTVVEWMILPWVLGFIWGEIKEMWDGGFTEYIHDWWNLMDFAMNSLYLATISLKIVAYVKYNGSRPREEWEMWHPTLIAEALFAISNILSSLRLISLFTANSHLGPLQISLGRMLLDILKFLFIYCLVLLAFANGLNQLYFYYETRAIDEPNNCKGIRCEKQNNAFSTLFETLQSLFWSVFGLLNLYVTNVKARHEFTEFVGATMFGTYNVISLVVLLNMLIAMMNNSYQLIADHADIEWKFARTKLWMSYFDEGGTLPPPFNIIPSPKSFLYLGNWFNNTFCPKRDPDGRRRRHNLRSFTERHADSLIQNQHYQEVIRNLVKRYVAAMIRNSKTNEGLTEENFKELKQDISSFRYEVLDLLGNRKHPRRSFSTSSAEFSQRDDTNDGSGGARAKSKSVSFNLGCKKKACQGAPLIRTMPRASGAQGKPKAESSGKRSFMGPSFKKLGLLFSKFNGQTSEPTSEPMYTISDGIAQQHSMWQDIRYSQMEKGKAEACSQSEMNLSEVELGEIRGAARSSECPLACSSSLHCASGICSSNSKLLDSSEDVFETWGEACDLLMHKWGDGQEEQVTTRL
Kind of assay: Outside-out single channel recordings of TRPC5-like and TRPC6-like conductances. The assay is classed as cell-based. The settings on record: La3+ 100 μM; after AngII 500 nM; Vstep +100 mV. Here is the method: (§1) Electrophysiology. Patch-clamp electrophysiology (Axopatch 200B amplifier, Axon Instruments, CA) was performed in the whole-cell configuration. Briefly, fully differentiated podocytes were plated on glass coverslips at low density and placed in the recording chamber. The patch pipettes with resistances of 3-4 MΩ were pulled from borosilicate glass with a P-97 puller (Sutter Instrument) and filled with a solution containing (in mM): 135 CH3SO3Cs, 10 CsCl, 3 MgATP, 0.2 NaGTP, 0.2 EGTA, 0.13 CaCl2, and 10 HEPES, pH 7.3 with CsOH. The bath solution contained (in mM): 135 CH3SO3Na, 5 CsCl, 2 CaCl2, 1 MgCl2, 10 HEPES, and 10 Glucose, pH 7.4 with NaOH. Angiotensin (500 nM) was applied to the bath solution. Whole-cell currents were recorded from −100 mV to 100 mV voltage ramps over 150 ms and a holding potential of zero. For single channel recordings in the outside-out configuration, we utilized a voltage step protocol from −100 mV to +100 mV delivered at 20 mV intervals and a holding potential of −60 mV. Average pipette resistance filled with pipette solution was 5-10 MΩ. Data were sampled at 10 kHz and filtered at 5 kHz. […] Ensemble averages were expressed as open channel probabilities (average current divided by unitary current amplitude and # of channels in each patch) and plotted as histograms. All data were acquired at room temperature and analyzed using pClamp 10 (Axon Instruments, CA).

Assay [2] addresses T2, TRPC5 and TRPC6 channels in AT1R podocytes (Rattus norvegicus, UniProt Q99N78).
T2 construct: endogenous in cells; host or cells: immortalized rat podocytes stably expressing the AngII Type 1 Receptor (AT1R podocytes)
T2 sequence (Q99N78 1-930): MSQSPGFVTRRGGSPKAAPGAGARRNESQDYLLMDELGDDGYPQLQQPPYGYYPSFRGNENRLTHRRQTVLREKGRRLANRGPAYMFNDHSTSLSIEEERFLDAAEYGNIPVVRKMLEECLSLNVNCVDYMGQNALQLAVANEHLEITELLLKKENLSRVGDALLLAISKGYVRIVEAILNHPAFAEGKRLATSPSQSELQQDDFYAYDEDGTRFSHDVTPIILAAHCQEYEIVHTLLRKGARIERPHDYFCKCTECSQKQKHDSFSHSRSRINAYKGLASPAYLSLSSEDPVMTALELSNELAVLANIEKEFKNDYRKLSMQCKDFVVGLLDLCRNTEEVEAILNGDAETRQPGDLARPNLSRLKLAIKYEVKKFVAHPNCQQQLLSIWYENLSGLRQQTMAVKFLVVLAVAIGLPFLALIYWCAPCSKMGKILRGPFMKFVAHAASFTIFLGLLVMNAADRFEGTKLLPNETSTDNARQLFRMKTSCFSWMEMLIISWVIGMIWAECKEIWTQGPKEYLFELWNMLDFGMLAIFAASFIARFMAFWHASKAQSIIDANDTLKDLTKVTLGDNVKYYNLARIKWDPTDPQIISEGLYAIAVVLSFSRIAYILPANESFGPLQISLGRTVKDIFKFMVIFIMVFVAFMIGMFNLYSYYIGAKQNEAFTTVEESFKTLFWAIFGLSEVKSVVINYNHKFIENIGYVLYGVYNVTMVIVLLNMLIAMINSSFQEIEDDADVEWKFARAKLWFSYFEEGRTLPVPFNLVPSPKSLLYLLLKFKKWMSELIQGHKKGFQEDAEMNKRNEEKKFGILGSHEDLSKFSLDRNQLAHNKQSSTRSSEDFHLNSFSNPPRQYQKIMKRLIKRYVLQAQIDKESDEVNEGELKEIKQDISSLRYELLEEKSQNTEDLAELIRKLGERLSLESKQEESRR
The description is as above. The assay is classed as cell-based. The settings on record: La3+ 100 μM; in words. Here is the method: as §1

Assay [3] relates to AT1R podocytes. The assay is described as follows: Fluo-3 calcium imaging of AngII-evoked Ca2+ transients. The assay is classed as cell-based, rat. The settings on record: Losartan 200 nM; AngII 500 nM. As to the method:
(§2) Podocyte cell culture. Wild-type mouse podocytes (passages 7 to 18) derived from the Immortomouse stably expressing the temperature-sensitive SV40 T-antigen were generously provided by Peter Mundel (University of Miami School of Medicine, FL) and cultured as previously described (Asanuma et al., Nat Cell Biol 8, 485-491, 2006). Briefly, podocytes were plated on collagen-coated cell culture dishes (100 μg/ml Type I Collagen, Gibco Invitrogen) and maintained at 33° C. in a humidified atmosphere of 5% CO2 in RPMI1640 medium supplemented with 10% heat-inactivated FBS, 100 U/ml Penicillin, 100 μg/ml streptomycin, and 100 U/ml Interferon-γ (IFN-γ). Under these permissive culture conditions, the podocytes remain in the undifferentiated, replication-competent state. Podocytes were thermoshifted to 38° C. and maintained in IFN-γ-free culture medium to induce growth arrest and differentiation. Podocyte-specific markers for differentiation are expressed within 7 days of culture in these non-permissive conditions. […]
Calcium imaging. […] Fluorescence intensity was normalized to maximal fluorescence obtained at the end of each experiment by the application of 100 μM Ionomycin, based on the formula F=(Fmax (angiotensin)−Fmin)/(Fmax (ionomycin)−Fmin). Measurements were analyzed using Zeiss Pascal Software and Microsoft Xcel, and images were prepared in Adobe Photoshop and NIH Image J.

Assay [4] has as its system AT1R podocytes. The assay is described as follows: Stress fiber (phalloidin) and focal adhesion (paxillin) quantification after AngII, AT1R podocytes. The assay is classed as cell-based, rat. The settings on record: in words. As to the method:
as §2
(§3) Immunocytochemistry, wound healing assays, and confocal imaging. […] For double immunostaining, podocytes were incubated with antibodies to Paxillin (Chemicon International) and detected with Alexa-488-conjugated secondary antibodies (Molecular Probes). […]

Another assay concerns podocytes. The assay is described as follows: Stress fiber quantification in podocytes, TRPC/Rho GTPase coupling (FIG. 4E). The assay is classed as cell-based. Here is the method: Lentivirus construction and shRNA-mediated gene silencing. Podocytes were exposed to lentivirus encoding validated shRNA sequences (Open Biosystems) for 24 hours in cell culture medium supplemented with 4 μg/ml polybrene (Chemicon International). For all experiments, parallel infections with the enhanced GFP virus in the VVPW vector, scrambled shRNA, or polybrene alone were used as control. All experiments were performed at least 48 hours post-infection of podocytes that were thermoshifted 5-7 days prior to the assay. Lentiviral particles pseudotyped with the vesicular stomatitis virus glycoprotein (VSV-G) were constructed according to the manufacturer's protocol. Briefly, low-passage HEK293T cells were transfected with the pLKO.1 plasmid encoding the shRNA, the packaging plasmid pMDG.2 ΔR8.91, and the envelope plasmid pCMV-VSV-G at a ratio of 10:10:1 using the Minis Trans-IT LT-1 transfection reagent. Enhanced GFP encoded in the pLVX vector was used to assess transfection efficiency. The medium was replaced with the virus harvest media 18 hours post-transfection, and viral particles were collected twice at 24 hour intervals thereafter. […]
as §3

Assay [5] deals with AT1R podocytes. Kind of assay: Whole-cell patch-clamp recording of AngII-evoked TRPC-like current. The assay is classed as cell-based, rat. The settings on record: AngII 500 nM. As to the method: as §1
On the technique in general: In patch-clamp work, channel activity is measured electrically.

Entries after “also recorded” stand apart in the source; their conditions may differ.

For the compound `[La+3]` [La^3+, Lanthanum], the “single channel conductance [4] unmasked” value in assay [1] turned out to be 33 pS. Further, in assay [2], the “effect on AngII-evoked single channel conductances [2] and [3] / single channel activity” value is “abolished; also recorded: suppressed”.
For the compound `CCCCc1nc(Cl)c(CO)n1Cc1ccc(-c2ccccc2-c2nn[nH]n2)cc1` [Losartan], the “decrease of the amplitude of the AngII-evoked Ca2+ transient” value with AT1R podocytes [3] is “more than 70%”. Further, the stress fiber formation entry in the assay on AT1R podocytes [4] (Losartan 200 nM prior to AngII exposure) was “induced robust stress fiber formation”. In addition, the “focal adhesions (Paxillin immunostaining)” value with AT1R podocytes [4] (Losartan-treated vs AngII-treated controls) is “increase in focal adhesions”. Also, the stress fibers in the assay on podocytes (cells pre-treated with Losartan, Scr shRNA controls 16±1) was found to be 25±1.
In turn, `C[C@@H](N)[C@H]1CC[C@H](C(=O)Nc2ccncc2)CC1` [Y27632] displayed a stress fibers with podocytes (Y27632 10 μM in TRPC5 depleted cells (22±3 without)) of 6±1.
In the case of “Angiotensin II (DRVYIHPF; Angiotensin-2; UniProt P01019 25-32, looked up) [AngII]”, the normalized peak current is on record as 20±7 pA/pF with AT1R podocytes [5] (at +100 mV) and 10±4 pA/pF in the assay on AT1R podocytes [5] (at -100 mV).
